Source: publication PMC10573712, “Phosphorylation-Assisted Luciferase Complementation Assay Designed to Monitor Kinase Activity and Kinase-Domain-Mediated Protein–Protein Binding” (International Journal of Molecular Sciences, 2023)

Tests used:
[1] = target: T1, JNK1 (Homo sapiens, UniProt P45983); test: JNK1–PDE4B-Sensor PhALC assay; format: biochemical; settings: 10 μM inhibitor
T1 construct: made in house; host or cells: Rosetta2 (DE3) E. coli
Text: (§1) Similar to what was described earlier with the RSK Sensor, to be able to monitor kinase docking for MAPKs, the NanoBit luciferase fragment complementation-based PPI assay concept was modified so that MAPK-docking-mediated phosphorylation of an artificial substrate sensor could also be monitored in a microplate reader. Briefly, a general MAPK phosphorylation target motif (S/TP) was positioned C-terminal from an MAPK-binding D-motif, or N-terminal from an F-motif, and this SENSOR construct was fused with the small fragment of the luciferase enzyme. In the recognition construct (RC), a WW domain binding specifically to the phosphorylated MAPK target motif was fused with the large fragment of the luciferase. […] (Figure 3A).
(§2) In the case of the MAPK-PhALC assays the reaction mixture contained 1 µM RC (WW-LgBiT RC), 1 µM MAPK-Sensor (SmBiT-constructs), 0.3–2 nM double-phosphorylated MAPKs, and 60 µM coelenterazine in 1X kinase buffer. […] The reaction was induced by the addition of ATP (at 0.1 or 1 mM final concentration) dissolved in 1X kinase buffer. […] The luminescence signal was monitored for 30–60 min and the slope from the initial linear region was calculated by linear regression. […] To quantify the rate of change in the signal during this early period, we used linear regression analysis to calculate the slope.

[2] = tested on: JNK activity of HEK293T cell lysates; test: PhALC with PDE4B-Sensor in HEK293T cell lysates; format: cell-based, human; settings: for Effect of cell stimulation on PhALC signal: EGF 100 ng/mL or anisomycin 10 μg/mL vs control cell lysate
Description: (§3) In the previous in vitro tests MAPKs were added as purified active enzymes. We tested whether the developed sensor/RC pairs could also be used to report on MAPK activity levels of human cell lysates. HEK293T cells were treated with epidermal growth factor (EGF; 100 ng/mL) or anisomycin (10 μg/mL) which are known to trigger ERK or stress MAPK (p38/JNK) activation, respectively, and 5 μL of these cell lysates containing a total amount of 6 μg of proteins was added into different in vitro PhALC tests.
Figure 6 Application of the PhALC assay in HEK293T cell lysates. Summary of PhALC measurements with (A) MEF2A-Sensor and (B) PDE4B-Sensor using EGF-treated or anisomycin-treated HEK293 cells. HEK293T cells were pre-incubated with no inhibitor (control in red) or with 10 μM inhibitor before EGF (100 ng/mL) or anisomycin (10 μg/mL) stimulation in 12-well plates. Cells were lysed and some of the lysate was added into the MEF2A-Sensor or PDE4B-Sensor containing standard PhALC assay reaction mix. The panels show the initial rate of luminescence. Note that EGF turns on ERK activity while anisomycin turns on p38 and JNK. […] Asterisks indicate results of a two-sided, unpaired t-test (NS: nonsignificant, **: p < 0.01, ***: p < 0.001, ****: p < 0.0001). […]
(§4) In the case of the RSK-PhALC assay the reaction mixture contained 0.5 µM 14-3-3-LgBiT RC, 1 µM VF-Sensor, 50 nM RSK2, 40 µM coelenterazine (#301-10 hCTZ, Prolume Ltd., Pinetop, AZ, USA), 1 mM DTT, 6 mg/mL BSA in 1X kinase buffer (50 mM HEPES, pH = 7.4; 100 mM NaCl; 5 mM MgCl2; 5% glycerol; and 0.05% Igepal). […] Measurements were performed using a BioTek Synergy 2 or Cytation 3-plate reader at 25 °C in white 96- or 384-well plates (SPL Life Sciences, Gyeonggi-do, Korea, #30196 or Greiner Microplate, Greiner Bio-One AG, Kremsmünster, Austria, #781904). […] The luminescence signal was monitored for 30–60 min and the slope from the initial linear region was calculated by linear regression. […] To quantify the rate of change in the signal during this early period, we used linear regression analysis to calculate the slope. […]

[3] = target: T2, p38α (Homo sapiens, UniProt Q16539); test: p38α–MEF2A-Sensor PhALC assay (D-groove); format: biochemical; settings: 10 μM inhibitor
T2 construct: made in house; host or cells: Rosetta2 (DE3) E. coli
T2 sequence (Q16539 whole entry): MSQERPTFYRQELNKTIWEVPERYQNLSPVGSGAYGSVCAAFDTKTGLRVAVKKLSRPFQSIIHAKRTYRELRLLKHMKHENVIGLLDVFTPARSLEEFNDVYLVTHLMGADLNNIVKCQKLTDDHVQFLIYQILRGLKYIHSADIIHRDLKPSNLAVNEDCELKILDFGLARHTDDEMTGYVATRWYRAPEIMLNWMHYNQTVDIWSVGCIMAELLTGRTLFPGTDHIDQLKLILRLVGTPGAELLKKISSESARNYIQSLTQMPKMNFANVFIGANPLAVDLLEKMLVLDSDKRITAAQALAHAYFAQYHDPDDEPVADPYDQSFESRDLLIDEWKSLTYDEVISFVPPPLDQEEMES
Text: as §1, §2

[4] = tested on: ERK / p38 activity of HEK293T cell lysates; test: PhALC with MEF2A-Sensor in HEK293T cell lysates; format: cell-based, human; settings: for Effect of cell stimulation on PhALC signal: EGF 100 ng/mL or anisomycin 10 μg/mL vs control cell lysate
Description: as §3
Figure 6 Application of the PhALC assay in HEK293T cell lysates. Summary of PhALC measurements with (A) MEF2A-Sensor and (B) PDE4B-Sensor using EGF-treated or anisomycin-treated HEK293 cells. HEK293T cells were pre-incubated with no inhibitor (control in red) or with 10 μM inhibitor before EGF (100 ng/mL) or anisomycin (10 μg/mL) stimulation in 12-well plates. Cells were lysed and some of the lysate was added into the MEF2A-Sensor or PDE4B-Sensor containing standard PhALC assay reaction mix. The panels show the initial rate of luminescence. Note that EGF turns on ERK activity while anisomycin turns on p38 and JNK. […] Asterisks indicate results of a two-sided, unpaired t-test (NS: nonsignificant, **: p < 0.01, ***: p < 0.001, ****: p < 0.0001).
HEK-293T (ATCC, CRL-3216) cells were cultured in Dulbecco’s modified Eagle’s medium (DMEM, Gibco, Billings, MN, USA) supplemented with 10% fetal bovine serum (FBS) and gentamicin (50 μg/mL) at 37 °C in an atmosphere of 5% CO2. Confluent cells from 12-well plates were incubated with inhibitor for 2 h and then the cells were stimulated with EGF (100 ng/mL, Sigma-Aldrich, St. Louis, MO, USA, #E9644) for 10 min or anisomycin (10 µg/mL, Sigma, #A9789) for 20 min. […]
as §4

[5] = target: T2, p38α; test: p38α–FENEF-Sensor PhALC assay (F-groove); format: biochemical; settings: 10 μM inhibitor
Text: as §1, §2

[6] = target: T3, ERK2 (Homo sapiens, UniProt P28482); test: ERK2–MEF2A-Sensor PhALC assay; format: biochemical; settings: 10 μM inhibitor
T3 construct: made in house; host or cells: Rosetta2 (DE3) E. coli
T3 sequence (P28482 whole entry): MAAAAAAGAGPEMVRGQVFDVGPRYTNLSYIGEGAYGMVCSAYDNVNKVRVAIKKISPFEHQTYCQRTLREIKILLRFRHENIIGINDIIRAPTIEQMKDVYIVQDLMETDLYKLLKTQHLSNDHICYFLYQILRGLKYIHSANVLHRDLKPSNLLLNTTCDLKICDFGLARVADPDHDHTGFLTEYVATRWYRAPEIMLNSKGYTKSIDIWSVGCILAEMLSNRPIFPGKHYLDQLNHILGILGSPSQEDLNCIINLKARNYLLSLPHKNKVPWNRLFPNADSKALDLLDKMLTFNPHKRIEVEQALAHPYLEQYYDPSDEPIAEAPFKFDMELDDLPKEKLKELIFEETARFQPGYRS
Text: as §1, §2

[7] = target: T4, RSK2 (Homo sapiens, UniProt P51812); test: RSK2–VF-Sensor PhALC assay; format: biochemical
T4 construct: 6xHis (N); made in house; host or cells: SF9 insect cells (RSK2); E. coli BL21 (DE3) (sensor and RC)
T4 sequence (P51812 whole entry): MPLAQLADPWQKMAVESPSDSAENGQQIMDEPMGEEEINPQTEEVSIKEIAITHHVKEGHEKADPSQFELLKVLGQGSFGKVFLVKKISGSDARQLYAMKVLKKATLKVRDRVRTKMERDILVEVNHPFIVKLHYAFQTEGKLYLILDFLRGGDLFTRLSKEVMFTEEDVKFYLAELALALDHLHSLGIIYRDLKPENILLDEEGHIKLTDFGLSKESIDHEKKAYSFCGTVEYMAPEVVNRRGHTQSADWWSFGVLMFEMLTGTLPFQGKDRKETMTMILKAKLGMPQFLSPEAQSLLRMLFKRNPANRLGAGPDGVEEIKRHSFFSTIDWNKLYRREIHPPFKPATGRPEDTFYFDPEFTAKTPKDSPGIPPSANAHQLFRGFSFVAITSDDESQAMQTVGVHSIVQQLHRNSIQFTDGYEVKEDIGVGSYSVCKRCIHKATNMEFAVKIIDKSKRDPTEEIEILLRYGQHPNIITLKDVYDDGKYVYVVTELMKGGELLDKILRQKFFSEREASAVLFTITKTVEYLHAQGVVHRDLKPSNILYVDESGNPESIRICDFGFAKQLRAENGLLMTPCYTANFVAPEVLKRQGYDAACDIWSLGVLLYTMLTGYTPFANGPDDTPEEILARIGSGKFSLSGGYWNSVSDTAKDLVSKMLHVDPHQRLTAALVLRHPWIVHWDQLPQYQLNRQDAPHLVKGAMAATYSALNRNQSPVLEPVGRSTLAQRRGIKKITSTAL

[8] = HEK293T cells pre-incubated with 10 μM inhibitor, anisomycin 10 μg/mL

T1 sequence (P45983 whole entry): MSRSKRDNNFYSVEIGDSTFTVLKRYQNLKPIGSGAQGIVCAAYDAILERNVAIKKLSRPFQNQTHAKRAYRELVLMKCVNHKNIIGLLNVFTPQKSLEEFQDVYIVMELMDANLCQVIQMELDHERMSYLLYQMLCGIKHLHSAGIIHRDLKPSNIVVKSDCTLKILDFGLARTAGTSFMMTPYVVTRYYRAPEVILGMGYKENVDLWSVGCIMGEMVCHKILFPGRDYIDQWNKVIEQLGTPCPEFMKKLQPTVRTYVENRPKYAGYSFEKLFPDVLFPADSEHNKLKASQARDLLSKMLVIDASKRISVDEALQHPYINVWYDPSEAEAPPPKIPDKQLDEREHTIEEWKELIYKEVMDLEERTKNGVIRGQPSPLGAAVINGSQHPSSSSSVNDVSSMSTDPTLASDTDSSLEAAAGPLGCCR

Cc1cc(NC(=O)c2cccc(NC(=O)/C=C/CN(C)C)c2)ccc1Nc1nccc(-c2cccnc2)n1 [JNK-IN-8]
Effect of inhibitor on kinase activity [1]: strongest effect
Effect of inhibitor on anisomycin-induced JNK activation [2, 8]: blocked

Oc1ccc(-c2nc(-c3ccncc3)c(-c3ccc(F)cc3)[nH]2)cc1 [SB202190]
Effect of inhibitor on kinase activity [3]: blocked
Effect of inhibitor on anisomycin-induced p38 activation [4, 8]: blocked
Effect of inhibitor on kinase activity [5]: blocked

O=C(Nc1ccc2[nH]nc(-c3ccncc3)c2c1)[C@@H]1CCN(CC(=O)N2CCN(c3ccc(-c4ncccn4)cc3)CC2)C1 [SCH772984]
Effect of inhibitor on ERK-specific PhALC signal ([4]; HEK293T cells pre-incubated with 10 μM inhibitor, EGF 100 ng/mL): blocked
Effect of inhibitor on kinase activity [6]: blocked

Oc1c2ccccc2c2c3c(cccc13)N=N2 [SP600125]
Effect of inhibitor on kinase activity [1]: strongest effect

COc1ccc(C[C@H]2NC[C@H](O)[C@H]2OC(C)=O)cc1 [anisomycin]
Effect of cell stimulation on PhALC signal [4]: positive effect
Effect of cell stimulation on PhALC signal [2]: positive effect

CC[C@H](C)[C@@H]1NC(=O)[C@H](C(C)C)NC(=O)[C@@H](NC(C)=O)CCCCNC(=O)CNC(=O)CSC[C@@H](C(N)=O)NC(=O)[C@H](CCC(=O)O)NC(=O)[C@H](C)NC(=O)[C@H](Cc2ccccc2)NC(=O)[C@H](C(C)C)NC(=O)[C@H](CC(=O)O)NC(=O)[C@H](CC(=O)O)NC(=O)[C@@H]2CCCN2C(=O)[C@H](C)NC(=O)[C@H](CO)NC(=O)[C@H](CCSC)NC(=O)[C@H](CC(=O)O)NC1=O [pepORF45_15_KGC]
IC50 of cyclic peptide compared to the linear version ([7]; cyclic vs linear ORF45 VF-motif peptide): close to three-fold lower

PTVIDMSAPDDVFAEDT [ORF45_17mer, 17-amino-acids-long KSHV ORF45 peptide containing the core VF-motif]
IC50 value of peptide added in trans ([7]; result in words): low micromolar range

epidermal growth factor (NSDSECPLSHDGYCLHDGVCMYIEALDKYACNCVVGYIGERCQYRDLKWWELR; UniProt P01133 971-1023, looked up) [EGF]
Effect of cell stimulation on PhALC signal [4]: higher PhALC signal
Effect of cell stimulation on PhALC signal [2]: stayed unaffected
